Measured values reported in US20070203225A1, “METHOD OF INCREASING ENDOGENOUS ADIPONECTIN PRODUCTION AND LEPTIN PRODUCTION” (priority 2001, published 2007).
“Also recorded” adds a separate entry of the source.

Legend:
cultured rat adipocytes = assay: Adiponectin secretion by isolated cultured rat adipocytes over 96 h; type: cell-based
Description: Several studies have reported that thiazolidenediones (TZDs), agonists of PPARγ, increase adiponectin expression and circulating levels in animals (Maeda, 2001; Yamauchi, 2001a; Ye, 2003). TZD (10 μM Troglitazone) stimulated of adiponectin secretion from cultured rat adipocytes from 3 different depots (n=6). Mesenteric fat produced the largest amount of adiponectin over 96 hours in culture. (FIG. 5A). Adiponectin secretion from both the control- and TZD-treated adipocytes was well correlated with the glucose utilization (control, r=0.79; p<0.001); (TZD-treated, r=0.84, p=<0.0001, FIG. 5B) showing that, similar to leptin production, glucose metabolism also is involved in the regulation of adiponectin production by adipocytes.
Insulin increased adiponectin production from 3 different fat depots, however as in the experiments with troglitazone, the mesenteric depot produced the most adiponectin (FIG. 6B). Like leptin, both basal and insulin-stimulated adiponectin secretion was highly correlated to glucose utilization (r=0.91, p<0.0001) (FIG. 6C), and inversely related to the proportion of glucose metabolized to lactate (r=−0.81, p<0.0001) (FIG. 6D).
Also paralleling the regulation of leptin, adiponectin secretion by isolated cultured adipocytes was increased during 96 h culture by inhibitors of PDH-K. DTNB (100 μM) increased adiponectin secretion by 40% (p<0.03, n=6, FIG. 7A). DCA (2 mM) increased adiponectin secretion by 23% (p<0.025, n=6, FIG. 7B). The increase in adiponectin induced by DTNB was highly correlated with glucose utilization (r=0.95, p<0.004). Furthermore in adipocytes transfected with antisense directed at PDH-K, adiponectin secretion was stimulated by 24.3±8.4%, p<0.05, n=7, FIG. 7C).
Cell isolation/preparation: Adipocytes are prepared from epididymal fat pads from male Sprague-Dawley rats weighing 300-600 g. Epididymal fat depots are resected from halothane anesthetized rats under aseptic conditions and adipocytes are isolated by collagenase digestion by the Rodbell method (Rodbell M. Metabolism of isolated fat cells. I. Effects of hormones on glucose metabolism and lipolysis. J Biol Chem. 1964; 239: 375-380), with minor modifications as previously described (Mueller W M, Gregoire F M, Stanhope K L, Mobbs C V, Mizuno T M, Warden C H, Stem J S, Havel P J. Evidence that glucose metabolism regulates leptin secretion from isolated adipocytes. Endocrinology 139: 551-558, 1998; Mueller W M, Stanhope K L, Gregoire F, Evans J L, Havel P J. Effects of metformin and vanadium on leptin secretion from cultured rat adipocytes. Obesity Res. 8: 530-539, 2000; Medina E A, Stanhope K L, Mizuno T M, Mobbs C V, Gregoire F, Hubbard N E, Erickson K L, Havel P J. Effects of tumor necrosis factor alpha on leptin secretion and gene expression: relationship to changes of glucose metabolism in isolated rat adipocytes. Int J Obes Relat Metab Disord. 23: 896-903, 1999.). The isolated adipocytes are then incubated for 30 minutes at 37 C before being plated and cultured on Matrigel-coated plates.
Adipocyte Culture: Adipocytes are maintained in culture anchored to a basement membrane matrix (Matrigel, Becton Dickinson, Franklin Lakes, N.J.) or collagen from Cohesion Technologies, (Palo Alto, Calif.). […]

leptin promoter = assay: Leptin promoter luciferase construct transfected into 3T3-L1 cells; type: cell-based

Compound	increase of adiponectin secretion (cultured rat adipocytes; DTNB 100 μM, DCA 2 mM, 96 h culture, n=6)	effect on adiponectin secretion (in words) (cultured rat adipocytes; PDH kinase inhibitors DTNB and DCA)	adiponectin secretion, 96 hr total (cultured rat adipocytes; 1.6 nM insulin, control 179.9±35.3 ng, n=6)	effect on adiponectin secretion (in words) (cultured rat adipocytes; insulin (1.6 nM), 96 hour culture)	effect on activity of control plasmid (in words) (leptin promoter; insulin 10 nM, 2-DG 10 mg/dl)	increase of leptin promoter activity (leptin promoter; insulin 0.1 to 10 nM, n=2 each)	effect on leptin promoter activity (in words) (leptin promoter; insulin 0.1 to 10 nM, 2-DG 10 mg/dl on basal and insulin-stimulated (10 nM) activity)
O=C(O)c1cc(SSc2ccc([N+](=O)[O-])c(C(=O)O)c2)ccc1[N+](=O)[O-] [DTNB, 5,5′-Dithiobis(2-nitrobenzoate)]	40%	increase	–	–	–	–	–
insulin	–	–	312.3 ± 44 ng	significant increase; also recorded: increases	unaffected	3-6 fold	increases
